Experimental data: patent US11857661B2, “Anti-dandruff composition” (Kancor Ingredients Ltd, priority 2018, dated 2024)

Legend:
[1] = tested on: Malassezia furfur CBS 1878; test: Association testing, checkerboard titration (FIC index); type: cell-based; conditions: M. furfur CBS 1878; sample B alone
Text: (§1) As noted above, the anti-dandruff active portion of the anti-dandruff composition comprises (or consists essentially of) a combination of at least two of the three described anti-dandruff actives (i.e., the punicalagin composition, the first monoterpenoid composition, and the second monoterpenoid composition). The combinations are based on the additive or synergistic relationship between the individual anti-dandruff actives. Inhibition testing of the individual anti-dandruff actives to determine MIC levels followed the principles and general methods disclosed in C. Lens-Lisbonne, et al. “Methods for the evaluation of antibacterial activity of essential oils: applications to essences of thyme and cinnamon,” J. Pharm. Belg., 1987, 42(5): 297-302; and C. Lisbonne “Evaluation of bacteriostatic activity of essential oils and their components,” Doctoral Thesis, Pharmacy Faculty, Marseille, F R 1988. Interactions of bi-component mixtures (Fractional Inhibitory Concentration) were evaluated in accordance with the method described by J. L. Pons et al., “Evaluation of antimicrobial interactions between chlorhexidine, quaternary ammonium compounds, preservatives and excipients,” J. Appl. Bacteriol., 1992, 73, 395-400, to assess their additive or synergistic effects.
Study of Associations. After obtaining the MIC levels for each of the anti-dandruff actives by broth dilution method, a checkerboard titration technique was performed to assess the synergistic activity of the combinations. In order to evaluate the activity of the combinations of the anti-dandruff actives, a Fractional Inhibitory Concentration index (FICindex) was calculated: (FICindex)=FIC^A+FIC^B, where FIC^A and FIC^B represent the minimum concentrations inhibiting the M. furfur growth for anti-dandruff actives A and B, respectively. And FIC^A=MIC^Acombination/MIC^Aalone, and FIC^B=MIC^Bcombination/MIC^Balone.] A mean FIC index was calculated based on the following equation: FICindex=FIC^A+FIC^B. Synergism is defined as FIC≤0.75; additive as FIC˜1; indifference as 1<FIC≤2; and antagonism is defined as FIC>2, as reported by J. L. Pons; N. Bonnaveiro; J. Chevalier; and A. Crémieux, “Evaluation of antimicrobial interactions between chlorhexidine, quaternary ammonium compounds, preservatives and excipients,” J. Appl. Bacteriology, 1992, 73(5), 395-400.

[2] = tested on: Malassezia furfur CBS 1878; test: Minimum inhibitory concentration, broth dilution; type: cell-based; conditions: M. furfur CBS 1878; for minimum inhibition concentration (MIC) value: classic broth dilution protocol
Text: Inhibition is defined as giving less than 20% growth compared to a control, as determined by spectrophotometric optical density (OD) reading at 620 nm, using the formula % of growth=[(ODproduct−OCabsorbance-control)]/(ODpositive growth-control).
as §1
Briefly, as is commonly known by those skilled in the art of the instant disclosure, assessment of Malassezia furfur inhibition may be accomplished following standard and accepted practices, such as that described in U.S. Patent Application Publication No. 2008/0249186. Accordingly, an external testing laboratory performed a series of against Malassezia furfur to evaluate antimicrobial activity and interactions (see Lens, et al. “Methods for the evaluation of antimicrobial activity of essential oils,” J. Pharm. Belg. 1987). Inhibitory activity testing was conducted by mixing 100 μl of various dilutions of the test product at a double concentration with an equal volume (100 μl) of a double strength Difco™ Sabouraud dextrose broth supplemented with olive oil, inoculated between 2 to 6×10^5 cfu/mL. After incubation (24-72 hours, at 32.5° C.±2.5° C.), a spectrophotometric reading at 620 nm is performed and the percentage of growth calculated from optical density (OD) measuring each concentration with respect to a positive growth control according to the following equation: % of growth=[ODproduct−ODabsorbance-control)]/(ODpositive growth-control).
Each concentration was tested in triplicate, and two assays were performed per product. The positive growth control consisted of 100 μl 1% agar solution mixed with 100 μl of inoculated broth.

| MIC B Alone % [1] [%] | minimum inhibition concentration (MIC) value [2] [%] | Molecule | Minimum Inhibitory Concentration, Test 1 [2] [%] | Minimum Inhibitory Concentration, Test 2 [2] [%] |
| --- | --- | --- | --- | --- |
| 0.5 | 0.5 | O=c1oc2c(O)c(O)cc3c(=O)oc4c(O)c(O)cc1c4c23 [EA, Ellagic Acid] | 0.5 | 0.5 |
| >1 | > 1 | CC1=CCC(C(C)C)=CC1 [GTP, gamma-terpinene] |  |  |
| 0.5 | 0.5 | Cc1ccc(C(C)C)cc1 [PCY, para-cymene] |  |  |
| 0.05 | 0.05 | Cc1ccc(C(C)C)c(O)c1 [TML, thymol] |  |  |

| Molecule | MIC B Alone % [1] [%] | minimum inhibition concentration (MIC) value [2] [%] | Minimum Inhibitory Concentration, Test 1 [2] [%] | Minimum Inhibitory Concentration, Test 2 [2] [%] |
| --- | --- | --- | --- | --- |
| Punicalagins A&B | 0.05 | 0.05 | 0.05 | 0.05 |
